Legend:
[1] = system: AMBEL (Ambrosia artemisifolia); experiment: Preemergence herbicidal evaluation; assay type: in vivo, L.; conditions: preemergence, rated 4-5 weeks after treatment
In short: (§1)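 Test compound is applied in aqueous acetone to cups just after seeding. Cups are watered and maintained on greenhouse benches. Each cup is scored 0–9 by eye relative to a control after four to five weeks.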

[2] = system: CASOB (Cassia obtusifolia); experiment: Preemergence herbicidal evaluation; assay type: in vivo, L.; conditions: preemergence, rated 4-5 weeks after treatment
In short: as §1

[3] = system: CHEAL (Chenopodium album); experiment: Preemergence herbicidal evaluation; assay type: in vivo, L.; conditions: preemergence, rated 4-5 weeks after treatment
In short: as §1

[4] = system: SAGPY (Sagittaria pygmaea); experiment: Flooded paddy, preemergence weed control; assay type: in vivo, L.; conditions: rate 0.1250 kg/ha, rated 3-4 weeks after treatment, 0-9 rating scale
In short: (§2)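 Under paddy conditions, seeds or vegetative propagules go into the top 0.5 cm of silt loam; the soil is then flooded to 1.5–3 cm and kept so. Treated pots stay in a greenhouse; response is rated 0-9 visually versus control.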

ZEAMX (Corn, Field) [5] = experiment: Preemergence herbicidal evaluation; assay type: in vivo, Zea mays, L.; conditions: preemergence, rated 4-5 weeks after treatment
[6] = system: ECHORC (Echinochloa oryzoides); experiment: Flooded paddy, preemergence weed control; assay type: in vivo, Echinochloa oryzoides (Ard.) Fritsch.; conditions: rate 0.1250 kg/ha, rated 3-4 weeks after treatment, 0-9 rating scale
In short: as §2

[7] = system: ABUTH (Abutilon theophrasti); experiment: Postemergence herbicidal evaluation; assay type: in vivo, Medic.
In short: (§3)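 Seedlings grown for about two weeks were sprayed postemergence and then kept under standard greenhouse care. Injury was rated visually 4–5 weeks after treatment on a 0–9 scale against untreated controls, and ratings from repeat tests were averaged.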

[8] = system: AMBEL (Ambrosia artemisifolia); experiment: Postemergence herbicidal evaluation; assay type: in vivo, L.
In short: as §3

[9] = system: CASOB (Cassia obtusifolia); experiment: Postemergence herbicidal evaluation; assay type: in vivo, L.
In short: as §3

[10] = system: CHEAL (Chenopodium album); experiment: Postemergence herbicidal evaluation; assay type: in vivo, L.
In short: as §3

CYPIR (Cyperus iria) = experiment: Flooded paddy, preemergence weed control; assay type: in vivo; conditions: rate 0.1250 kg/ha, rated 3-4 weeks after treatment, 0-9 rating scale
In short: as §2

SETVI (Setaria viridis) [11] = experiment: Postemergence herbicidal evaluation; assay type: in vivo, (L.) Beau
In short: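 ~2-wk seedlings; spray 0.0040–1.000 kg/ha in 50/50 acetone/water + 0.5% TWEEN 20, 40 psi nozzle. Greenhouse hold; visual 0–9 rating vs control at 4–5 wk; multiple tests averaged.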

[12] = system: TRZAWR (Wheat, Winter, cv Riband); experiment: Preemergence herbicidal evaluation; assay type: in vivo, Triticum aestivum; conditions: preemergence, rated 4-5 weeks after treatment
In short: as §1

SETVI (Setaria viridis) [13] = experiment: Preemergence herbicidal evaluation; assay type: in vivo, (L.) Beau; conditions: preemergence, rated 4-5 weeks after treatment
In short: as §1

[14] = system: ECHCG (Echinochloa crus-galli); experiment: Preemergence herbicidal evaluation; assay type: in vivo, (L.) Beau; conditions: preemergence, rated 4-5 weeks after treatment
In short: as §1

[15] = system: TRZAWR (Wheat, Winter, cv Riband); experiment: Postemergence herbicidal evaluation; assay type: in vivo, Triticum aestivum
In short: as §3

[16] = system: ECHCG (Echinochloa crus-galli); experiment: Postemergence herbicidal evaluation; assay type: in vivo, (L.) Beau
In short: as §3

[17] = system: IPOHE (Ipomoea hederacea); experiment: Preemergence herbicidal evaluation; assay type: in vivo, (L.) Jacq.; conditions: preemergence, rated 4-5 weeks after treatment
[18] = system: GLXMAW (Soybean, Williams); experiment: Preemergence herbicidal evaluation; assay type: in vivo, Glycine max, (L.) Merr. cv Williams; conditions: preemergence, rated 4-5 weeks after treatment
ORYSAT (Rice, Tebonnet) [19] = experiment: Flooded paddy, post-transplant rice tolerance; assay type: in vivo, Oryza sativa, (L.) Tebonnet; conditions: flooded paddy, post-transplant rice; rate 0.1250 kg/ha; rated 3-4 weeks after treatment; 0-9 rating scale
In short: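 Seedlings aged ten days are transplanted in pairs into undrained pots of silt loam, which are then flooded to a depth of 1.5 to 3 cm. After herbicide application the pots are kept in a greenhouse with the flood maintained. Plants are rated 0-9 by visual comparison with controls.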

[20] = system: ABUTH (Abutilon theophrasti); experiment: Preemergence herbicidal evaluation; assay type: in vivo, Medic.; conditions: preemergence, rated 4-5 weeks after treatment
ZEAMX (Corn, Field) [21] = experiment: Postemergence herbicidal evaluation; assay type: in vivo, Zea mays, L.
In short: as §3

ORYSAT (Rice, Tebonnet) [22] = experiment: Preemergence herbicidal evaluation; assay type: in vivo, Oryza sativa, (L.) Tebonnet; conditions: preemergence, rated 4-5 weeks after treatment
GALAP (Galium aparine) [23] = experiment: Preemergence herbicidal evaluation; assay type: in vivo; conditions: preemergence, rated 4-5 weeks after treatment
In short: as §1

[24] = system: GLXMAW (Soybean, Williams); experiment: Postemergence herbicidal evaluation; assay type: in vivo, Glycine max, (L.) Merr. cv Williams
In short: as §3

GALAP (Galium aparine) [25] = experiment: Postemergence herbicidal evaluation; assay type: in vivo
In short: as §3

[26] = system: IPOHE (Ipomoea hederacea); experiment: Postemergence herbicidal evaluation; assay type: in vivo, (L.) Jacq.
In short: as §3

[27] = system: MOOVA (Monochoria vaginalis); experiment: Flooded paddy, preemergence weed control; assay type: in vivo, Presl.; conditions: rate 0.1250 kg/ha, rated 3-4 weeks after treatment, 0-9 rating scale
In short: as §2

ORYSAT (Rice, Tebonnet) [28] = experiment: Postemergence herbicidal evaluation; assay type: in vivo, Oryza sativa, (L.) Tebonnet
In short: as §3

[29] = system: CYPSE (Cyperus serotinus); experiment: Flooded paddy, preemergence weed control; assay type: in vivo, Rottb.; conditions: rate 0.1250 kg/ha, rated 3-4 weeks after treatment, 0-9 rating scale
Method: Results of herbicide evaluation are expressed on a rating scale (0-9). The scale is based upon a visual observation of plant stand, vigor, malformation, size, chlorosis and overall plant appearance as compared with a control.
Preemergence herbicidal activity under flooded paddy conditions is determined as follows: plant seeds or propagating organs are planted in the top 0.5 cm of silt loam soil in 32 oz. plastic containers with a diameter of 10.5 cm and no drainage holes. Water is added to these containers and maintained at 1.5 to 3 cm above the soil surface for the duration of the experiment. The test compounds are applied as aqueous/acetone mixtures 50/50 v/v pipetted directly into the flood water to give the equivalent of about 0.0080 to 0.1250 kg/ha of active ingredient. The treated containers are placed on greenhouse benches and cared for in accordance with conventional greenhouse procedures. Three to four weeks after treatment, the test is terminated and each container is examined and herbicidal effect rated according to the rating system provided in Example 87.

Cc1nnc(-c2nsc3ccc(-n4c(=O)cc(C(F)(F)F)n(C)c4=O)cc23)o1 [Compound 16, 1-methyl-3-[3-(5-methyl-1,3,4-oxadiazol-2-yl)-1,2-benzisothiazol-5-yl]-6-(trifluoromethyl)uracil]
3.5: Postemergence herbicidal rating, CASOB ([9]; rate 0.1250 kg/ha) | Postemergence herbicidal rating, CHEAL ([10]; rate 0.1250 kg/ha)
6.0: herbicidal rating, CYPSE [29]
7.0: TRZAWR preemergence herbicidal rating ([12]; Rate 0.2500 kg/ha) | ORYSAT preemergence herbicidal rating (ORYSAT (Rice, Tebonnet) [22]; Rate 0.2500 kg/ha) | GALAP preemergence herbicidal rating (GALAP (Galium aparine) [23]; Rate 0.2500 kg/ha)
5.5: herbicidal rating, ORYSAT (rice tolerance) (ORYSAT (Rice, Tebonnet) [19])
8.5: herbicidal rating, CYPIR (CYPIR (Cyperus iria))
3.0: Postemergence herbicidal rating, TRZAWR ([15]; rate 0.1250 kg/ha) | Postemergence herbicidal rating, GALAP (GALAP (Galium aparine) [25]; rate 0.1250 kg/ha) | Postemergence herbicidal rating, ORYSAT (ORYSAT (Rice, Tebonnet) [28]; rate 0.1250 kg/ha)
9.0: AMBEL preemergence herbicidal rating ([1]; Rate 0.2500 kg/ha) | CASOB preemergence herbicidal rating ([2]; Rate 0.2500 kg/ha) | CHEAL preemergence herbicidal rating ([3]; Rate 0.2500 kg/ha) | SETVI preemergence herbicidal rating (SETVI (Setaria viridis) [13]; Rate 0.2500 kg/ha) | ECHCG preemergence herbicidal rating ([14]; Rate 0.2500 kg/ha) | IPOHE preemergence herbicidal rating ([17]; Rate 0.2500 kg/ha) | ABUTH preemergence herbicidal rating ([20]; Rate 0.2500 kg/ha) | herbicidal rating, MOOVA [27]
5.8: Postemergence herbicidal rating, GLXMAW ([24]; rate 0.1250 kg/ha)
4.5: herbicidal rating, SAGPY [4] | Postemergence herbicidal rating, ABUTH ([7]; rate 0.1250 kg/ha) | Postemergence herbicidal rating, AMBEL ([8]; rate 0.1250 kg/ha) | Postemergence herbicidal rating, SETVI (SETVI (Setaria viridis) [11]; rate 0.1250 kg/ha) | Postemergence herbicidal rating, IPOHE ([26]; rate 0.1250 kg/ha)
1.5: Postemergence herbicidal rating, ECHCG ([16]; rate 0.1250 kg/ha)
4.3: Postemergence herbicidal rating, ZEAMX (ZEAMX (Corn, Field) [21]; rate 0.1250 kg/ha)
8.0: herbicidal rating, ECHORC [6]
7.5: ZEAMX preemergence herbicidal rating (ZEAMX (Corn, Field) [5]; Rate 0.2500 kg/ha) | GLXMAW preemergence herbicidal rating ([18]; Rate 0.2500 kg/ha)

Cn1c(C(F)(F)F)cc(=O)n(-c2cc3c(-c4ccccn4)nsc3cc2F)c1=O [Compound 25, 3-[6-fluoro-3-(2-pyridyl)-1,2-benzisothiazol-5-yl]-1-methyl-6-(trifluoromethyl)uracil]
8.0: ZEAMX preemergence herbicidal rating (ZEAMX (Corn, Field) [5]; Rate 0.1250 kg/ha)
9.0: AMBEL preemergence herbicidal rating ([1]; Rate 0.1250 kg/ha) | CASOB preemergence herbicidal rating ([2]; Rate 0.1250 kg/ha) | CHEAL preemergence herbicidal rating ([3]; Rate 0.1250 kg/ha) | herbicidal rating, SAGPY [4] | herbicidal rating, ECHORC [6] | Postemergence herbicidal rating, ABUTH ([7]; rate 0.0620 kg/ha) | Postemergence herbicidal rating, AMBEL ([8]; rate 0.0620 kg/ha) | Postemergence herbicidal rating, CASOB ([9]; rate 0.0620 kg/ha) | Postemergence herbicidal rating, CHEAL ([10]; rate 0.0620 kg/ha) | herbicidal rating, CYPIR (CYPIR (Cyperus iria)) | Postemergence herbicidal rating, SETVI (SETVI (Setaria viridis) [11]; rate 0.0620 kg/ha) | TRZAWR preemergence herbicidal rating ([12]; Rate 0.1250 kg/ha) | SETVI preemergence herbicidal rating (SETVI (Setaria viridis) [13]; Rate 0.1250 kg/ha) | ECHCG preemergence herbicidal rating ([14]; Rate 0.1250 kg/ha) | IPOHE preemergence herbicidal rating ([17]; Rate 0.1250 kg/ha) | herbicidal rating, ORYSAT (rice tolerance) (ORYSAT (Rice, Tebonnet) [19]) | ABUTH preemergence herbicidal rating ([20]; Rate 0.1250 kg/ha) | ORYSAT preemergence herbicidal rating (ORYSAT (Rice, Tebonnet) [22]; Rate 0.1250 kg/ha) | Postemergence herbicidal rating, GLXMAW ([24]; rate 0.0620 kg/ha) | Postemergence herbicidal rating, IPOHE ([26]; rate 0.0620 kg/ha) | herbicidal rating, MOOVA [27] | herbicidal rating, CYPSE [29]
7.0: GLXMAW preemergence herbicidal rating ([18]; Rate 0.1250 kg/ha) | Postemergence herbicidal rating, ZEAMX (ZEAMX (Corn, Field) [21]; rate 0.0620 kg/ha)
5.0: GALAP preemergence herbicidal rating (GALAP (Galium aparine) [23]; Rate 0.1250 kg/ha)
4.5: Postemergence herbicidal rating, TRZAWR ([15]; rate 0.0620 kg/ha)
3.0: Postemergence herbicidal rating, ECHCG ([16]; rate 0.0620 kg/ha) | Postemergence herbicidal rating, ORYSAT (ORYSAT (Rice, Tebonnet) [28]; rate 0.0620 kg/ha)
4.0: Postemergence herbicidal rating, GALAP (GALAP (Galium aparine) [25]; rate 0.0620 kg/ha)

— patent publication US6706663B2, “Herbicidal 3-heterocyclic substituted benzisothiazole and benzisoxazole compounds” (Wyeth, priority 2000, dated 2004)
